Data published in PubChem BioAssay AID248 (DTP/NCI, 2004).
Several values for one entry are separate records, joined by “and”; a condition that tells them apart may be missing. Equal values may be shown once. Toxic doses and inconclusive results are not listed. Rule as the data show it: active = T/C of 150% or more; inactive = T/C below 125%.

Tested on: L1210 leukemia ip in BDF1 mice, survival T/C
Test: NCI In Vivo Anticancer Drug Screen. Data for tumor model L1210 Leukemia (intraperitoneal) in B6D2F1 (BDF1) mice
Settings: endpoint: mean survival time, higher = longer survival
In short: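 Tumor cells were implanted, animals were treated, and survival was followed. The result divides the treated measurement by the vehicle-control measurement.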

[1] = dose: 100.0 mg/kg/injection, schedule: Q01DX009 (ip), vehicle: saline with Tween-80
[2] = dose: 200.0 mg/kg/injection, schedule: Q01DX009 (ip), vehicle: saline with Tween-80
[3] = dose: 100.0 mg/kg/injection, schedule: Q04DX003 (ip), vehicle: saline with Tween-80
[4] = dose: 200.0 mg/kg/injection, schedule: Q04DX003 (ip), vehicle: saline with Tween-80
[5] = dose: 400.0 mg/kg/injection, schedule: Q04DX003 (ip), vehicle: saline with Tween-80
[6] = dose: 100.0 mg/kg/injection, schedule: Q04DX003 (ip), vehicle: Klucel (hydroxypropylcellulose) (HPC)
[7] = dose: 200.0 mg/kg/injection, schedule: Q04DX003 (ip), vehicle: Klucel (hydroxypropylcellulose) (HPC)
[8] = dose: 400.0 mg/kg/injection, schedule: Q04DX003 (ip), vehicle: Klucel (hydroxypropylcellulose) (HPC)
[9] = dose: 100.0 mg/kg/injection, schedule: Q01DX001 (ip), vehicle: saline
[10] = dose: 200.0 mg/kg/injection, schedule: Q01DX001 (ip), vehicle: saline
[11] = dose: 400.0 mg/kg/injection, schedule: Q01DX001 (ip), vehicle: saline
[12] = dose: 50.0 mg/kg/injection, schedule: Q01DX009 (ip), vehicle: saline

Measured: T/C

O=C(O)c1c(I)c(I)c(I)c(I)c1C(=O)c1ccccc1
inactive: dose: 50.0 mg/kg/injection, schedule: Q01DX009 (ip), vehicle: saline with Tween-80 103 % of control | [1] 115 % of control | [2] 112 % of control

CCOC(=O)C(C(=O)OCC)c1nc(=O)[nH]c(=O)[nH]1
inactive: dose: 100.0 mg/kg/injection, schedule: Q01DX Z (ip), vehicle: methylcellulose (MC) 97 % of control

CC(=O)OCC1OC(N2C(=O)/C(=C/c3ccc(Br)s3)SC2=S)C(OC(C)=O)C(OC(C)=O)C1OC(C)=O (stereo unspecified)
inactive: dose: 25.0 mg/kg/injection, schedule: Q01DX005 (ip), vehicle: other 94 % of control | dose: 50.0 mg/kg/injection, schedule: Q01DX005 (ip), vehicle: other 94 % of control | dose: 100.0 mg/kg/injection, schedule: Q01DX005 (ip), vehicle: other 94 % of control

C=CCOc1cccc(OCC=C)c1C
inactive: [3] 100 % of control | [4] 98 % of control | [5] 98 % of control

CCc1[nH]c(=S)ncc1-c1ccc([N+](=O)[O-])cc1O
inactive: [6] 93 % of control | [7] 93 % of control | [8] 106 % of control

CCOC(=O)c1c[nH]c2nc(N)ccc2c1=O
inactive: dose: 50.0 mg/kg/injection, schedule: Q01DX001 (ip), vehicle: saline 104 % of control | [9] 106 % of control | [10] 106 % of control | [11] 101 % of control

CC1=C/C(O)CC(=O)Cc2nc(co2)C(=O)N2CCC=C2C(=O)OC(C(C)C)C(C)/C=C\C(=O)NC/C=C\1 (stereo unspecified)
inactive: dose: 0.5 micrograms/kg/injection, schedule: Q01DX009 (ip), vehicle: saline 95 % of control | dose: 1.0 micrograms/kg/injection, schedule: Q01DX009 (ip), vehicle: saline 93 % of control | dose: 2.0 micrograms/kg/injection, schedule: Q01DX009 (ip), vehicle: saline 104 % of control | dose: 4.0 micrograms/kg/injection, schedule: Q01DX009 (ip), vehicle: saline 104 % of control

O=P(OCc1ccccc1)(OCc1ccccc1)C(Nc1ccccc1)c1ccccc1 (stereo unspecified)
inactive: dose: 50.0 mg/kg/injection, schedule: Q01DX009 (ip), vehicle: Klucel (hydroxypropylcellulose) (HPC) 100 % of control | dose: 100.0 mg/kg/injection, schedule: Q01DX009 (ip), vehicle: Klucel (hydroxypropylcellulose) (HPC) 103 % of control | [6] 100 % of control | dose: 200.0 mg/kg/injection, schedule: Q01DX009 (ip), vehicle: Klucel (hydroxypropylcellulose) (HPC) 103 % of control | [7] 94 % of control | [8] 93 % of control

NC(=S)N/N=C/c1ccc(F)cc1
inactive: dose: 60.0 mg/kg/injection, schedule: Q01DX Z (oral), vehicle: methylcellulose (MC) 90 % of control | dose: 120.0 mg/kg/injection, schedule: Q01DX Z (oral), vehicle: methylcellulose (MC) 87 % of control

Oc1ccccc1C=NCCN=Cc1ccccc1O
inactive: [1] 90 % of control | [2] 92 % of control | dose: 400.0 mg/kg/injection, schedule: Q01DX009 (ip), vehicle: saline with Tween-80 92 % of control

Cc1ccccc1N=P(c1ccccc1)(c1ccccc1)c1ccccc1
inactive: dose: 100.0 mg/kg/injection, schedule: Q01DX009 (ip), vehicle: gum acacia 100 % of control | dose: 100.0 mg/kg/injection, schedule: Q04DX003 (ip), vehicle: gum acacia 93 % of control | dose: 200.0 mg/kg/injection, schedule: Q01DX009 (ip), vehicle: gum acacia 102 % of control | dose: 200.0 mg/kg/injection, schedule: Q04DX003 (ip), vehicle: gum acacia 90 % of control | dose: 400.0 mg/kg/injection, schedule: Q04DX003 (ip), vehicle: gum acacia 93 % of control

CC1CCOC(C)(CO)O1 (stereo unspecified)
inactive: dose: 100.0 mg/kg/injection, schedule: Q04DX002 (ip), vehicle: saline with Tween-80 98 % of control | dose: 200.0 mg/kg/injection, schedule: Q04DX002 (ip), vehicle: saline with Tween-80 95 % of control | dose: 400.0 mg/kg/injection, schedule: Q04DX002 (ip), vehicle: saline with Tween-80 98 % of control

CN(C)C1CCCC(OC(=O)c2ccccc2)C1 (stereo unspecified)
inactive: dose: 100.0 mg/kg/injection, schedule: Q04DX003 (ip), vehicle: saline sonified 98 % of control

CC(=O)Oc1ccc([N+](=O)[O-])cc1
inactive: dose: 25.0 mg/kg/injection, schedule: Q04DX002 (ip), vehicle: Klucel (hydroxypropylcellulose) (HPC) 102 % of control | dose: 50.0 mg/kg/injection, schedule: Q04DX002 (ip), vehicle: Klucel (hydroxypropylcellulose) (HPC) 89 % of control | dose: 100.0 mg/kg/injection, schedule: Q04DX002 (ip), vehicle: Klucel (hydroxypropylcellulose) (HPC) 90 % of control | dose: 200.0 mg/kg/injection, schedule: Q04DX002 (ip), vehicle: Klucel (hydroxypropylcellulose) (HPC) 92 % of control and 96 % of control

CN(C)CC1CCCCC1=O (stereo unspecified)
inactive: [1] 97 % of control | [6] 102 % of control | dose: 100.0 mg/kg/injection, schedule: Q04DX003 (ip), vehicle: saline 103 % of control | [2] 96 % of control | [7] 102 % of control | dose: 200.0 mg/kg/injection, schedule: Q04DX003 (ip), vehicle: saline 110 % of control | [8] 97 % of control | dose: 400.0 mg/kg/injection, schedule: Q04DX003 (ip), vehicle: saline 103 % of control

COC1=CC23CCN(C)C(CCc4cc(OC)c(OC)c(OC)c42)C3=CC1=O (stereo unspecified)
inactive: dose: 25.0 mg/kg/injection, schedule: Q04DX002 (ip), vehicle: saline 114 % of control | dose: 50.0 mg/kg/injection, schedule: Q04DX002 (ip), vehicle: saline 108 % of control | dose: 100.0 mg/kg/injection, schedule: Q04DX002 (ip), vehicle: saline 111 % of control | dose: 200.0 mg/kg/injection, schedule: Q04DX002 (ip), vehicle: saline 105 % of control | dose: 400.0 mg/kg/injection, schedule: Q04DX002 (ip), vehicle: saline 103 % of control

O=C(Nc1ccc(N=Nc2ccccc2)cc1)Nc1cc([N+](=O)[O-])ccc1F
inactive: [6] 86 % of control | [7] 86 % of control | [8] 91 % of control

C=C1CC[N+]2(C)CCCC12 (stereo unspecified)
inactive: dose: 12.5 mg/kg/injection, schedule: Q01DX009 (ip), vehicle: saline 100 % of control | dose: 25.0 mg/kg/injection, schedule: Q01DX009 (ip), vehicle: saline 113 % of control | [12] 95 % of control and 91 % of control

NC(=O)n1ncnc1N
inactive: dose: 50.0 mg/kg/injection, schedule: Q01DX001 (ip), vehicle: carboxymethylcellulose (CMC) 110 % of control | dose: 100.0 mg/kg/injection, schedule: Q01DX001 (ip), vehicle: carboxymethylcellulose (CMC) 101 % of control | [3] 96 % of control | dose: 200.0 mg/kg/injection, schedule: Q01DX001 (ip), vehicle: carboxymethylcellulose (CMC) 104 % of control | [4] 97 % of control | dose: 400.0 mg/kg/injection, schedule: Q01DX001 (ip), vehicle: carboxymethylcellulose (CMC) 104 % of control | [5] 105 % of control

C=C(C)CNC(=O)Oc1cccc(NC(=O)OC)c1
inactive: dose: 100.0 mg/kg/injection, schedule: Q01DX001 (ip), vehicle: saline with Tween-80 97 % of control | dose: 200.0 mg/kg/injection, schedule: Q01DX001 (ip), vehicle: saline with Tween-80 95 % of control | dose: 400.0 mg/kg/injection, schedule: Q01DX001 (ip), vehicle: saline with Tween-80 92 % of control

COc1ccc(C(=S)N2CCN(c3ccc(Cl)cc3)CC2)cc1
inactive: [9] 95 % of control | [10] 95 % of control | [11] 95 % of control

CC(C)OC(=O)C(=O)Nc1cccc(Cl)c1
inactive: dose: 100.0 mg/kg/injection, schedule: Q01DX001 (ip), vehicle: Klucel (hydroxypropylcellulose) (HPC) 108 % of control | dose: 200.0 mg/kg/injection, schedule: Q01DX001 (ip), vehicle: Klucel (hydroxypropylcellulose) (HPC) 95 % of control | dose: 400.0 mg/kg/injection, schedule: Q01DX001 (ip), vehicle: Klucel (hydroxypropylcellulose) (HPC) 95 % of control

CN(CCO)C(=O)/C=C/c1ccccc1
inactive: [12] 100 % of control | dose: 100.0 mg/kg/injection, schedule: Q01DX009 (ip), vehicle: saline 94 % of control | dose: 200.0 mg/kg/injection, schedule: Q01DX009 (ip), vehicle: saline 92 % of control

CC1(C)N=C(N)N=C(N)N1c1cccc(OCCOc2ccc([N+](=O)[O-])cc2)c1
inactive: [9] 101 % of control | [10] 95 % of control

CC(=O)NC(C)CCC(C)C (stereo unspecified)
inactive: [6] 101 % of control | [7] 100 % of control | [8] 101 % of control

O=C(O)CC1CCC2CC(O)c3cccc1c32 (stereo unspecified)
inactive: dose: 100.0 mg/kg/injection, schedule: Q04DX003 (ip), vehicle: acetone 106 % of control | dose: 200.0 mg/kg/injection, schedule: Q04DX003 (ip), vehicle: acetone 105 % of control | dose: 400.0 mg/kg/injection, schedule: Q04DX003 (ip), vehicle: acetone 105 % of control
